# Source: article PMC12684298, “The Parkinson's Disease Drug Tolcapone and Analogues are Potent Glycomimetic Lectin Inhibitors of Pseudomonas aeruginosa LecA” (Angewandte Chemie (International Ed. in English), 2025)
# Key:
# LecA [1] = molecular target: T1, LecA (Pseudomonas aeruginosa, UniProt Q05097); assay: biochemical; assay type: binding; conditions: IC50, LecA inhibition, competitive binding assay (FP), tested up to 1.5 mM, n ≥ 2
# T1 construct: made in house; host or cells: E. coli BL21 (DE3), plasmid pET25pa11
# T1 sequence (Q05097 whole entry): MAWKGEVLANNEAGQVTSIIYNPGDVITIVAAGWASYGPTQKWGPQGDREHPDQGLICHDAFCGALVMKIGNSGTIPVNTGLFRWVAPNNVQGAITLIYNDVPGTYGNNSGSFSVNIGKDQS
# Description: Therefore, we focused our attention on commercially available nitro‐catechols. Prominent derivatives are inhibitors of the enzyme catechol‐O‐methyltransferase (COMT) and approved drugs for the treatment of Parkinson's disease. Four commercial COMT inhibitors were thus evaluated in a previously reported competitive binding assay based on fluorescence polarisation (FP, Table 1, Figure 1).^[ [32] ^]
# The competitive binding assay was performed in analogy to Joachim et al.^[2] 10 µL of a solution containing LecA (40 µM) and sulfo-Cy5-Gal (20 nM, synthesis described in Kuhaudomlarp, Siebs et al.^[5]) in TBS/Ca buffer (20 mM Tris, 147 mM NaCl, 2.6 mM KCl at pH 7.4 supplemented with 1 mM CaCl2) were distributed in into wells of a black 384-well microtiter plate (Greiner Bio-One, Germany, cat no 781900). Then, 10 µL of serial dilutions of compounds (3 mM to 1.5 µM, dilution factor 0.5) in TBS/Ca with 40% DMSO were added in technical triplicates. Final concentrations after mixing were the following: 1.5 mM – 0.73 µM compound, 20 µM LecA, 10 nM sulfo-Cy5-Gal and 20% DMSO. The plate was sealed (EASYseal, Greiner Bio-One, cat no 676001), briefly centrifuged and incubated at room temperature in the dark under shaking conditions. Fluorescence intensity was measured after 1 h and 4 h using a PheraStar FS plate reader (BMG Labtech GmbH, Germany) with spectral filters for excitation at 590 nm and emission at 675 nm and polarization was calculated after blank values of 20 µM LecA in TBS/Ca buffer with 20% DMSO were subtracted from the test compounds. The data were analysed using the four-parameter variable slope model of the MARS Data Analysis software. The top and bottom plateau were assigned based on the control compound methyl α-d-galactoside and the data was reanalysed with these fixed values. If not mentioned otherwise, the experiment was repeated at least three times for each compound and the average and standard deviation are given. In case Triton X-100 was used it was added to the TBS/Ca buffer before the assay.
# [2] = one of the hydroxy groups; no reference given; cited from earlier work
# LecA [3] = molecular target: T1, LecA; assay: Library screening using the FP competitive binding assay (three concentrations); conditions: read-out: Activity [%] (% inhibition relative to 500 µM pNPGal)
# Text: Next, we screened a library of catechols from F. Hoffmann‐La Roche, the developer of Tolcapone, in the competitive binding assay to establish a structure–activity relationship. To this end, two sets of compounds with a molecular cut‐off of 500 Da were chosen: a first set of 342 compounds contained derivatives of Tolcapone, while a second set of 3222 compounds comprised catechols covering a larger chemical space. […] Tests were run in a 384‐well‐plate format at three concentrations (first set at 125, 32, and 4 µM, second set at 100, 25, and 3 µM) in presence of 10% DMSO and 250 µM 2‐mercaptoethanol to prevent interference by a potential unspecific reactivity of electron‐rich catechols as established earlier.^[ [30] ^]
# The screening followed the same assay by Joachim et al.^[2] as described above. Compounds in DMSO (1 µL with the appropriate concentration) were plated using a robot into black 384-well microtiter plates (Greiner Bio-One, Germany, cat no 781900) by the Roche compound handling facility at four replicates per concentration and compound. A mixture of LecA, sulfo-Cy5-Gal and 2-mercaptoethanol in TBS/Ca (20 mM Tris, 147 mM NaCl, 2.6 mM KCl at pH 7.4 supplemented with 1 mM CaCl2) with DMSO was added at HIPS. Final concentrations in both screening rounds were the following: 5 µM LecA, 250 µM 2-mercaptoethanol, 10 nM sulfo-Cy5-Gal and 10% DMSO. Final concentrations of the 342 compounds of the first screening round were 125 µM, 32 µM and 4 µM. The 3222 compounds of the second screening round were tested at final concentrations of 100 µM, 25 µM and 3 µM. The plate was sealed (EASYseal, Greiner Bio-One, cat no 676001), briefly centrifuged and incubated at room temperature in the dark under shaking conditions. Fluorescence intensities were measured after 1 h and 24 h using a PheraStar FS plate reader (BMG Labtech GmbH, Germany) with spectral filters for excitation at 590 nm and emission at 675 nm and polarization was calculated after blank values of 5 µM LecA in TBS/Ca buffer with 250 µM 2-mercaptoethanol and 10% DMSO were subtracted from the test compounds. The data were analysed using the MARS Data Analysis software. […] All stated values are the average including the standard deviation based on three replicates for 100 µM and four replicates in the case of compounds at 125 µM.
# LecA [4] = molecular target: T1, LecA; assay: Surface plasmon resonance (SPR) direct binding, steady-state affinity
# Description: To confirm the affinity of Tolcapone toward LecA in an orthogonal assay, the compound was then evaluated in a direct binding experiment by surface plasmon resonance (SPR).
# Using a BIACORE X100, LecA was immobilised on a CM7 chip by standard amine coupling at 25 °C as described previously.^[5] From a 200 mM solution of Tolcapone in 100% DMSO, a 10 mM solution in PBS (supplemented with 0.05% Tween20 and 100 µM CaCl2) was prepared. The final dilutions (0 – 2000 µM) were then prepared by dilution with running buffer (PBS supplemented with 0.05% Tween 20, 100 µM CaCl2 and 5% DMSO). Increasing concentrations of Tolcapone were injected onto the immobilised LecA in steady-state affinity studies (30 s association, 60 s dissociation, flow rate 30 µL/min). Data was corrected by subtraction of the reference channel (no immobilised LecA) and analysed with the BIACORE X100 evaluation software (version 2.0). The average binding affinity and standard deviation of three independent experiments is given.
smiles,measurement,setting,value
"Cc1ccc(C(=O)c2cc(O)c(O)c([N+](=O)[O-])c2)cc1 [compound 4, Tolcapone]",IC50,LecA [1],257 ± 40 µM
same,pKa,[2],~4.6
same,inhibition at 100 µM,LecA [3],43.9 ± 2.1%
same,Kd,LecA [4],181 ± 6 µM
